Data taken from US8207310B2, “Antibodies to proteolysis inducing factor (PIF) receptor and methods of use thereof” (Ashton University, priority 2006, dated 2012).
Entries after “also recorded” stand apart in the source; their conditions may differ.

System: PIF receptors on C2C12 membranes
Assay: Competitive binding of [35S]PIF to C2C12 membranes
Set-up: species or system mouse
Conditions: result in words
Method: Competitive binding of [^35S]PIF C2C12 membranes (200 μg) in PBS (250 μl) were incubated with 1, 5, 10, 50, 100, 500 or 1000 ng of either monoclonal antibody, chondroitin, dermatan or heparan sulfate and 20 nM (480 ng) of [^35S]PIF overnight at 4° C. The bound radioactivity was determined from the radioactivity in the pellet obtained by centrifugation at 13,000 g for 5 min.
The Kaff was determined according to a modification (Clark, B. R. and Todd, C. W. Avidin as a precipitant for biotin-labelled antibody in a radioimmunoassay for carcinoembryonic antigen. Anal. Biochem., 121: 257-262, 1982.) of the method of Muller (Muller, R.
Calculation of average antibody affinity in anti-hapten sera from data obtained by competitive radioimmunoassay. J. Immunol. Methods, 34: 345-352, 1980.). Kaff=^1/(It−Tt)(1−[…]+0.5b^2) where It is the inhibitor concentration at 50% inhibition of PIF binding; Tt the total PIF concentration; b the fraction of PIF bound in the absence of inhibitor.

Substance | inhibition of binding of PIF to receptors on C2C12 membranes
heparan sulfate | not
chondroitin sulfate | competitive inhibition; also recorded: specifically inhibited
